What was measured:
barnyardgrass = experiment: Test Example 3: paddy pot test, application under submerged conditions; assay type: in vivo, Echinochloa crus-galli L.; conditions: submerged application at 0.5 leaf stage, visually observed 14 days after application, 0 = non-treated, 100 = complete kill
Excerpt: (§1) Paddy field soil was put into a 1/1,000,000 ha pot, and seed of barnyardgrass and japanese bulrush were sown and slightly covered with soil. Then, the pot was left to stand still in a greenhouse in a state where the depth of flooding water was from 0.5 to 1 cm, and one day or two days later, tubers of japanese ribbon wapato were planted. Thereafter, the depth of flooding water was maintained at a level of from 3 to 4 cm, and when barnyardgrass and japanese bulrush reached a 0.5 leaf stage and japanese ribbon wapato reached a primary leaf stage, an aqueous diluted solution of a wettable powder or emulsifiable concentrate having the compound of the present invention formulated in accordance with a usual formulation method, was uniformly applied under submerged conditions by a pipette so that the dose of the active ingredient would be at a predetermined level. On the 14 days after the application of the herbicide, the growth of barnyard grass, japanese burlrush and japanese ribbon wapato was visually observed and on the 21st day after the application of the herbicide, the growth of rice was visually observed, and the herbicidal effects were evaluated by the growth-controlling degrees (%) ranging from 0 (equivalent to the non-treated plot) to 100 (complete kill), whereby the results shown in Table 5 were obtained.

rice (var. Nihonbare) = experiment: Test Example 3: paddy pot test, transplanted rice; assay type: in vivo, Oryza sativa L.; conditions: applied 4th day after transplantation, visually observed 21st day after application, 0 = non-treated, 100 = complete kill
Excerpt: as §1, with “On the other hand, paddy field soil was put into a 1/1,000,000 ha pot and puddled and leveled, and the depth of flooding water was from 3 to 4 cm. Next day, rice (var. Nihonbare) of 2 leaf stage was transplanted in a depth of 3 cm. On the 4th day after the transplantation, the compound of the present invention was applied in the same manner as described above. On the 14 days” for “On the 14 days”

japanese ribbon wapato = experiment: Test Example 3: paddy pot test, application under submerged conditions; assay type: in vivo, Sagittaria pygniaea; conditions: submerged application at primary leaf stage, visually observed 14 days after application, 0 = non-treated, 100 = complete kill
Excerpt: as §1

japanese bulrush = experiment: as above; assay type: in vivo, Scirpus juncoides; conditions: submerged application at 0.5 leaf stage, visually observed 14 days after application, 0 = non-treated, 100 = complete kill
Excerpt: as §1

SMILES	Growth controlling degree (%) Barnyardgrass (barnyardgrass; active ingredient 250 g/ha) [%]	Growth controlling degree (%) Rice (rice (var. Nihonbare); active ingredient 250 g/ha) [%]	Growth controlling degree (%) Japanese ribbon wapato (japanese ribbon wapato; active ingredient 250 g/ha) [%]	Growth controlling degree (%) Japanese bulrush (japanese bulrush; active ingredient 250 g/ha) [%]	Growth controlling degree (%) Barnyardgrass (barnyardgrass; active ingredient 500 g/ha) [%]	Growth controlling degree (%) Rice (rice (var. Nihonbare); active ingredient 500 g/ha) [%]	Growth controlling degree (%) Japanese ribbon wapato (japanese ribbon wapato; active ingredient 500 g/ha) [%]	Growth controlling degree (%) Japanese bulrush (japanese bulrush; active ingredient 500 g/ha) [%]
CCN(C(=O)Cc1ccccc1F)C(c1cnccc1C(F)(F)F)C(C)C (stereo not shown) [I-78]	100	20	40	70				
CC(C)C(c1cnccc1Cl)N(C)C(=O)Cc1ccc(Cl)c(Cl)c1 (stereo not shown) [I-80]	98	20	20	90				
Cc1ccccc1CC(=O)N(C)C(c1cnccc1Cl)C(C)C (stereo not shown) [I-83]	98	10	20	98				
Cc1cccc(CC(=O)N(C)C(c2cnccc2Cl)C(C)C)c1 (stereo not shown) [I-88]	100	0	50	70				
CC(C)C(c1cnccc1Cl)N(C)C(=O)Cc1c(F)ccc(F)c1F (stereo not shown) [I-89]	100	0	40	95				
CC(C)C(c1cnccc1C(F)(F)F)N(C)C(=O)Cc1cc(Cl)cc(Cl)c1 (stereo not shown) [I-91]	90	0	20	20				
CC(C)C(c1cccnc1)N(C)C(=O)Cc1ccccc1 (stereo not shown) [I-93]					60	0	30	95
CCN(C(=O)Cc1cc(F)ccc1F)C(c1cnccc1C(F)(F)F)C(C)C (stereo not shown) [I-98]	100	10	40	80				
Cc1ccc(F)c(CC(=O)N(C)C(c2cnccc2C(F)(F)F)C(C)C)c1 (stereo not shown) [I-108]	98	10	60	100				
CC(C)C(c1cnccc1C(F)(F)F)N(C)S(=O)(=O)c1ccc(C(F)(F)F)cc1 (stereo not shown) [I-146]	98	20	0	80				
CC(C)C(c1cnccc1C(F)(F)F)N(C)C(=O)C=COc1ccccc1 (stereo not shown) [I-166, N-methyl-N-[2-methyl-1-(4-trifluoromethylpyridin-3-yl)propyl]3-phenoxypropenamide]	100	0	0	95				
CC(C)C(c1cnccc1C(F)(F)F)N(C)C(=O)C=Cc1ccc(Cl)cc1 (stereo not shown) [I-171]	60	0	0	98				
CC(C)C(c1cnccc1C(F)(F)F)N(C)C(=O)C=Cc1cccs1 (stereo not shown) [I-173]	90	0	30	95				
CC(=CC(=O)N(C)C(c1cnccc1C(F)(F)F)C(C)C)c1ccccc1 (stereo not shown) [I-174]	10	0	0	95				
CC(C)C(c1cnccc1C(F)(F)F)N(C)C(=O)C=C1CCCC1 (stereo not shown) [I-176]	98	0	0	98				
CC(C)C(c1cnccc1C(F)(F)F)N(C)C(=O)C=C1CCCCC1 (stereo not shown) [I-177]	60	20	20	98				
CC(C)C(c1cnccc1C(F)(F)F)N(C)C(=O)C=Cc1cccc(Br)c1 (stereo not shown) [I-179]					90	10	30	90
CC(C)C(c1cnccc1C(F)(F)F)N(C)C(=O)C=Cc1ccc2ccccc2c1 (stereo not shown) [I-188]					100	0	0	0
CC(C)C(c1cnccc1C(F)(F)F)N(C)C(=O)C1CCCC1 (stereo not shown) [I-212]	100	30	80	98				
CCN(C(=O)N(C)C(c1cnccc1C(F)(F)F)C(C)C)c1ccccc1 (stereo not shown) [I-233]					95	10	40	90
CC(C)C(c1cnccc1C(F)(F)F)N(C)C(=O)COc1ccccc1Cl (stereo not shown) [I-235]	100	0	60	90				
CC(C)C(c1cnccc1C(F)(F)F)N(C)C(=O)COc1ccc(Cl)cc1Cl (stereo not shown) [I-236]	95	0	70	80				
CC(C)C(c1cnccc1C(F)(F)F)N(C)C(=O)COc1ccc([N+](=O)[O-])cc1 (stereo not shown) [I-237]	95	0	40	95				
Cc1cccc(OCC(=O)N(C)C(c2cnccc2C(F)(F)F)C(C)C)c1 (stereo not shown) [I-238]	95	20	60	95				
Cc1ccccc1OCC(=O)N(C)C(c1cnccc1C(F)(F)F)C(C)C (stereo not shown) [I-240]	100	0	50	100				
